Among the data in patent US10189854B2, “Substituted pyrimidine compounds” (Grünenthal GmbH, priority 2014, dated 2019) are IC50 values, retold here.

Where a name gives a salt, the structure may show the parent alone. Bounds are passed on as bounds.

Sequence of human PDE4B1 (Q07343 whole entry): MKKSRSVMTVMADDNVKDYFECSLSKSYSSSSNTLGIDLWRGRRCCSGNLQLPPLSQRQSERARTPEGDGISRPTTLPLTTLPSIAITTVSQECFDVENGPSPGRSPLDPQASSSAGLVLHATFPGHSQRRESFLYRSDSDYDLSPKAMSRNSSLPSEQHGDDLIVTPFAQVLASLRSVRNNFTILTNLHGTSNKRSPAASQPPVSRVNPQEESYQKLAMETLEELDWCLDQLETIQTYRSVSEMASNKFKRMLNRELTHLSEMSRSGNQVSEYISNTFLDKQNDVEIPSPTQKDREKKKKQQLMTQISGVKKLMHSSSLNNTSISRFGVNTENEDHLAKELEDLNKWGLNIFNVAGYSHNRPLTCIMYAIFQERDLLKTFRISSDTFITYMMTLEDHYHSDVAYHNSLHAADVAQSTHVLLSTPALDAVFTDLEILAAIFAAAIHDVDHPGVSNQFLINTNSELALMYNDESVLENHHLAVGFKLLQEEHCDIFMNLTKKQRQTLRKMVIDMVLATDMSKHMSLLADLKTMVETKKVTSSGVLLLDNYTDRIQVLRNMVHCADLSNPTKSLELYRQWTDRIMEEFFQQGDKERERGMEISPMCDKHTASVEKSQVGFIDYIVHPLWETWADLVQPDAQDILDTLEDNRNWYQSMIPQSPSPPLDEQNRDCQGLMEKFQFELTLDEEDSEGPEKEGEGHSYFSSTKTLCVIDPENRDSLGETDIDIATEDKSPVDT

This assay addresses human PDE4B1 (Homo sapiens (Human), UniProt Q07343). The assay is described as follows: TR-FRET assay using the LANCE Ultra cAMP kit to determine the activity of hPDE4B1. It is filed as biochemical. As to conditions: IC50 inhibition of PDE4B, mean. Put shortly: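 Recombinant human PDE4B1 (Sf9-expressed, 0.96 U) incubated with compound and 500 nM cAMP in 50 mM Tris-HCl, 50 mM MgCl2, 5 mM DTT, pH 8.5, 30 min at room temperature. Residual cAMP read by TR-FRET (665/620 nm ratio) after IBMX stop. IC50 from ten-concentration curves as % inhibition of control.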
A general note: In TR-FRET formats the signal depends on donor and acceptor labels being close together.
For orientation: IC50 means the concentration that gives 50% inhibition. Read a low IC50 as greater potency. `Nc1ccnc(-c2cnc(N3CC4(CC4)c4ccc(C(=O)N5CCNC(=O)C5)cc43)nc2)c1` [Compound 258, 4-[1-[5-(4-Amino-pyridin-2-yl)-pyrimidin-2-yl]-spiro[1,2-dihydro-indole-3,1′-cyclopropane]-6-carbonyl]-piperazin-2-one] came in with an IC50 of under 0.1 µM. In the case of `CN(CCO)C(=O)c1ccc2c(c1)N(c1ncc(-c3cc(N)ccc3F)cn1)CC21CC1` [Compound 228, 1-[5-(5-Amino-2-fluoro-phenyl)-pyrimidin-2-yl]-N-(2-hydroxy-ethyl)-N-methyl-spiro[1,2-dihydro-indole-3,1′-cyclopropane]-6-carboxylic acid amide], the IC50 is under 0.1 µM. The molecule `C[S+]([O-])c1ccc(F)c(-c2cnc(N3CC4(CC4)c4ccc(C(=O)N5CCOCC5)cc43)nc2)c1` (centres unmarked) [Compound 355, [1-[5-[2-Fluoro-5-(methylsulfinyl)-phenyl]-pyrimidin-2-yl]-spiro[1,2-dihydro-indole-3,1′-cyclopropane]-6-yl]-morpholin-4-yl-methanone] showed a half-inhibitory concentration (IC50) of under 0.1 µM. Consider `Nc1ccnc(-c2cnc(N3CC4(CC4)c4ccc(C(=O)N5CC6CC5CN6)cc43)nc2)c1` (centres unmarked) [Compound 263, [1-[5-(4-Amino-pyridin-2-yl)-pyrimidin-2-yl]-spiro[1,2-dihydro-indole-3,1′-cyclopropane]-6-yl]-(2,5-diazabicyclo[2.2.1]heptan-2-yl)-methanone dihydrochloride], for which the IC50 is under 0.1 µM. Then `CC(=O)Nc1ccnc(-c2cnc(N3CC4(CC4)c4ccc(C(=O)N5CC6CC5CN6)cc43)nc2)c1` (centres unmarked) [Compound 279, N-(2-(2-(6′-(2,5-diazabicyclo[2.2.1]heptane-2-carbonyl)spiro[cyclopropane-1,3′-indolin]-1′-yl)pyrimidin-5-yl)pyridin-4-yl)acetamide.HCl], with under 0.1 µM; and `CN(C)c1ccnc(-c2cnc(N3CC4(CC4)c4ccc(C(=O)N5C[C@@H]6C[C@H]5CN6)cc43)nc2)c1` [Compound 302, [(1S,4S)-2,5-Diazabicyclo[2.2.1]heptan-2-yl]-[1-[5-(4-dimethylamino-pyridin-2-yl)-pyrimidin-2-yl]-spiro[1,2-dihydro-indole-3,1′-cyclopropane]-6-yl]-methanone], with under 0.1 µM; and `Cc1cccc(-c2cnc(N3CC4(CC4)c4ccc(C(=O)N(C)CC(N)=O)cc43)nc2)n1` [Compound 307, N-(Carbamoyl-methyl)-N-methyl-1-[5-(6-methyl-pyridin-2-yl)-pyrimidin-2-yl]-spiro[1,2-dihydro-indole-3,1′-cyclopropane]-6-carboxylic acid amide], with under 0.1 µM. Then `CN(CCO)C(=O)c1ccc2c(c1)N(c1ncc(-c3cccc(S(C)(=O)=O)c3)cn1)CC21CC1` [Compound 277, N-(2-Hydroxy-ethyl)-N-methyl-1-[5-(3-methylsulfonyl-phenyl)-pyrimidin-2-yl]-spiro[1,2-dihydro-indole-3,1′-cyclopropane]-6-carboxylic acid amide], with under 0.1 µM.

`CN(CCO)C(=O)c1ccc2c(c1)N(c1ncc(-c3nc(CO)cs3)cn1)CC21CC1` [Compound 357, N-(2-Hydorxy-ethyl)-1-[5-[4-(hydroxymethyl)-thiazol-2-yl]-pyrimidin-2-yl]-N-methyl-spiro[1,2-dihydro-indole-3,1′-cyclopropane]-6-carboxylic acid amide] registered a concentration for half-maximal inhibition (IC50) of under 0.1 µM. `CN(CCO)C(=O)c1ccc2c(c1)N(c1ncc(-c3csc(C(N)=O)n3)cn1)CC21CC1` [Compound 327, 4-[2-[6-[(2-Hydroxy-ethyl)-methyl-carbamoyl]-spiro[1,2-dihydro-indole-3,1′-cyclopropane]-1-yl]-pyrimidin-5-yl]-thiazole-2-carboxylic acid amide] showed a half-maximal inhibitory concentration (IC50) of under 0.1 µM. `CN(CCO)C(=O)c1ccc2c(c1)N(c1ncc(-c3cc(NCC4CC4)ccn3)cn1)CC21CC1` [Compound 319, 1-[5-[4-(Cyclopropyl-methylamino)-pyridin-2-yl]-pyrimidin-2-yl]-N-(2-hydroxy-ethyl)-N-methyl-spiro[1,2-dihydro-indole-3,1′-cyclopropane]-6-carboxylic acid amide]: the IC50 is under 0.1 µM.

Take `COc1ccc(F)c(-c2cnc(N3CC4(CC4)c4ccc(C(=O)N(C)CCO)cc43)nc2)c1` [Compound 253, 1-[5-(2-Fluoro-5-methoxy-phenyl)-pyrimidin-2-yl]-N-(2-hydroxy-ethyl)-N-methyl-spiro[1,2-dihydro-indole-3,1′-cyclopropane]-6-carboxylic acid amide]: the concentration for half-maximal inhibition (IC50) is under 0.1 µM. The molecule `COc1cc(C)nc(-c2cnc(N3CC4(CC4)c4ccc(C(=O)N(C)CCO)cc43)nc2)c1` [Compound 282, N-(2-Hydroxy-ethyl)-1-[5-(4-methoxy--methyl-pyridin-2-yl)-pyrimidin-2-yl]-N-methyl-spiro[1,2-dihydro-indole-3,1′-cyclopropane]-6-carboxylic acid amide] registered an IC50 of under 0.1 µM. With `CN(CCO)C(=O)c1ccc2c(c1)N(c1ncc(-c3cccc(C4CC4)c3)cn1)CC21CC1` [Compound 267, 1-[5-(3-Cyclopropyl-phenyl)-pyrimidin-2-yl]-N-(2-hydroxy-ethyl)-N-methyl-spiro[1,2-dihydro-indole-3,1′-cyclopropane]-6-carboxylic acid amide], the half-maximal inhibitory concentration (IC50) is under 0.1 µM. For the molecule `C[C@@H](O)CN(C)C(=O)c1ccc2c(c1)N(c1ncc(-c3ccccc3F)cn1)CC21CC1` [Compound 283, 1-[5-(2-Fluorophenyl)-pyrimidin-2-yl)-N-[(2R)-2-hydroxy-propyl]-N-methyl-spiro[1,2-dihydro-indole-3,1′-cyclopropane]-6-carboxylic acid amide], the 50% inhibitory concentration (IC50) was under 0.1 µM. Then `CNC(=O)CN(C)C(=O)c1ccc2c(c1)N(c1ncc(-c3cc(C)ccn3)cn1)CC21CC1` [Compound 360, N-Methyl-N-(methylcarbamoyl-methyl)-1-[5-(4-methyl-pyridin-2-yl)-pyrimidin-2-yl]-spiro[1,2-dihydro-indole-3,1′-cyclopropane]-6-carboxylic acid amide], with under 0.1 µM. Molecule `CN(CCO)C(=O)c1ccc2c(c1)N(c1ncc(-c3cc(N4CCCC4)ccn3)cn1)CC21CC1` [Compound 315, N-(2-Hydroxy-ethyl)-N-methyl-1-[5-(4-pyrrolidin-1-yl-pyridin-2-yl)-pyrimidin-2-yl]-spiro[1,2-dihydro-indole-3,1′-cyclopropane]-6-carboxylic acid amide] gave an IC50 of under 0.1 µM. Regarding `CN(CCO)C(=O)c1ccc2c(c1)N(c1ncc(-c3cc(C4CC4)ccn3)cn1)CC21CC1` [Compound 254, 1-[5-(4-Cyclopropyl-pyridin-2-yl)-pyrimidin-2-yl]-N-(2-hydroxy-ethyl)-N-methyl-spiro[1,2-dihydro-indole-3,1′-cyclopropane]-6-carboxylic acid amide], the IC50 is under 0.1 µM. Turning to `CN(CCO)C(=O)c1ccc2c(c1)N(c1ncc(-c3cccc(F)n3)cn1)CC21CC1` [Compound 230, 1-[5-(6-Fluoro-pyridin-2-yl)-pyrimidin-2-yl]-N-(2-hydroxy-ethyl)-N-methyl-spiro[1,2-dihydro-indole-3,1′-cyclopropane]-6-carboxylic acid amide], the 50% inhibitory concentration (IC50) is under 0.1 µM. `CN(CCO)C(=O)c1ccc2c(c1)N(c1ncc(-c3cc(C(N)=O)cs3)cn1)CC21CC1` [Compound 348, 1-[5-(4-Carbamoyl-thiophen-2-yl)-pyrimidin-2-yl]-N-(2-hydroxy-ethyl)-N-methyl-spiro[1,2-dihydro-indole-3,1′-cyclopropane]-6-carboxylic acid amide] registered an IC50 of under 0.1 µM.
